Data taken from the pKa sets of Baltruschat and Czodrowski (2020).

Settings: acidic group

| SMILES | pKa |
| --- | --- |
| COc1cccc(C)c1C(=O)O | 3.46 |
| Cc1ccc(Cl)cc1C(=O)O | 3.63 |
| CCCOC(=S)NC(C)=O | 9.34 |
| Cc1cc([C@@H]([NH3+])CO)c(O)c([C@@H]([NH3+])CO)c1 | 6.3 |
| Cc1nn(-c2ccccc2)c(O)c1-c1ccccc1 | 11.9 |
| Cn1c([O-])nc(=O)c2[nH]cnc21 | 11.7 |
| [NH3+]C(Cc1ccccc1)c1nnn[nH]1 (stereo not drawn) | 1.93 |
| O=C1CCC(Cl)C1=O (stereo not drawn) | 7.05 |
| CNC(=S)OC(C)C | 11.6 |
| O=C/C(O)=C\[O-] | 13 |
| CC(C)=CCC1C(=O)C(C(=O)CC(C)C)C(=O)C(CC=C(C)C)(CC=C(C)C)C1=O (stereo not drawn) | 6.18 |
| Cc1cccc(NS(=O)(=O)c2ccccc2)c1 | 8.48 |
| CCCCCCCC(=O)NO | 9.19 |
| Oc1ccc2cc(Cl)ccc2c1 | 9.31 |
| CC1(C)C(=O)[CH-]C(=O)CC1=O | 9.73 |
| O=[N+]([O-])c1cc(Br)c(O)c(Br)c1 | 3.7 |
| CC(O)C(C(=O)O)c1ccc(C2CCCCC2)cc1 (stereo not drawn) | 4.21 |
| O=c1cc(-c2ccc(O)cc2)oc2ccccc12 | 8.27 |
| CC1SC(C)(C(=O)O)OC1=O (stereo not drawn) | 1.94 |
| Oc1nc2cc3c(cc2[nH]1)CCCC3 | 12.2 |
| O=[N+]([O-])c1ccc(O)c(C[NH+]2CCOCCOCCOCCOCCOCC2)c1 | 5.77 |
| COc1ccccc(=O)c1O | 8 |
| Nc1cccc[n+]1O | 2.67 |
| Cc1cc(/N=N/c2nc3ccccc3s2)c(O)c2ncccc12 | 9.6 |
| [NH3+]C(Cc1c[nH]c2ccccc12)C(=O)O (stereo not drawn) | 2.48 |
| CC(C)(/C=C/C(=O)O)c1cc([N+](=O)[O-])ccc1O | 4.26 |
| CC1=CC(=O)CC(=O)O1 | 5 |
| CC(C)(C)c1ccccc1C(=O)O | 3.53 |

| SMILES | pKa |
| --- | --- |
| Nc1ccc(S(=O)(=O)Nc2ccccn2)cc1 | 8.51 |
| C[C@@H]1CC[C@H](C)[C@@H]1C(=O)O | 5.4 |
| CC(=O)/C(=N/O)c1ccccc1 | 8.85 |
| COc1c(Cl)cc(Cl)c(O)c1C(=O)NC1CC[NH+](C)CC1 | 6.02 |
| Cc1ccc(C(=S)Nc2ccc(Cl)cc2)cc1 | 10.8 |
| c1cc2[nH]cnc2cn1 | 10.9 |
| [O-][n+]1ccc(O)cc1 | 5.76 |
| c1cncc(-c2nc3ccccc3[nH]2)c1 | 11.2 |
| N#CCCC(=O)O | 3.98 |
| Oc1ccc(Cl)cc1C[NH+]1CCCC1 | 8.3 |
| Cc1c(Cl)cc2nnn(O)c2c1[N+](=O)[O-] | 3.21 |
| CC[NH2+]CC(=O)O | 2.31 |
| Cc1csc(Cc2ccccc2)[n+]1C | 10.8 |
| CC(=O)[n+]1ccc(N(C)C)cc1 | 9.55 |
| Cn1cnc2[nH]c(=O)[nH]c(=O)c21 | 8.45 |
| O=C1CC[C@@H](C(=O)O)N1 | 3.4 |
| Cc1ccc2c(c1)C([P+](c1ccccc1)(c1ccccc1)c1ccccc1)c1ccccc1-2 (stereo not drawn) | 9.38 |
| Cc1cc(=O)oc2cccc(O)c12 | 8.26 |
| CCC(=O)c1nc(C(=O)O)cs1 | 3.7 |
| C[C@@H](C(=O)c1ccc(O)cc1)[NH+](C)Cc1ccccc1 | 7.5 |
| O=S(=O)(Cc1ccccc1)c1cnn[nH]1 | 5.15 |
| O=C(O)c1ccc2[nH]ccc2c1 | 4.1 |
| CCOC(=O)C(Cc1ccc(C)cc1)C(C)=O (stereo not drawn) | 11.9 |
| [S-]c1ncc2nc[nH]c2n1 | 10.4 |
| C[NH+]1C[C@@H](C(=O)O)C[C@@]2(O)c3cccc4[nH]cc(c34)C[C@H]12 | 3.38 |
| CC[NH+](CC)Cc1c(O)c(Cl)cc(Cl)c1Cl | 5.13 |
| O/C(=C/c1cc[nH+]cc1)c1ccccc1 | 4.19 |

Same assay, conditions: basic group

| SMILES | pKa |
| --- | --- |
| CCCNN | 7.92 |
| CNNC1CC[NH+](C(C)C)CC1 | 6.2 |
| CC(C)(C)NCCCCCCNC(C)(C)C | 11 |
| NOCc1ccc([N+](=O)[O-])cc1 | 3.96 |
| Cc1cc(CO)c(C)c(C)n1 | 7.3 |
| Cc1cc2c(cc1N)Sc1cc(N(C)C)ccc1N2 | 5.41 |
| CN(C)/C=N/c1ccccc1Br | 6.71 |
| Nc1c(C(=O)[O-])ncn1[C@H]1O[C@@H](CO)[C@H](O)[C@@H]1O | 5.9 |
| CCCCNc1ccnc2cccc([N+](=O)[O-])c12 | 7.18 |
| CN(C)CCNCC[NH+](C)C | 8.96 |
| Nc1cccc2nnn([C@@H]3C[C@@H](O)[C@H](CO)O3)c12 | 1.8 |
| CCCCCN(CCO)CC(C)O (stereo not drawn) | 8.9 |
| CCC(N)(CO)CO | 8.8 |
| Cc1cc([N+](=O)[O-])cc(C)c1N | 0.98 |
| COc1ccc(-c2cnc(-c3ccc(OC)cc3)o2)cc1 | 1.41 |
| CC(C)NNC1CC[NH+](C)CC1 | 6.32 |
| CN1Cc2c(ccc3c2OCO3)-c2ccc3cc4c(cc3c21)OCO4 | 2.6 |
| NCC[n+]1ccc2c([N+](=O)[O-])cccc2c1 | 6.65 |
| CN(C)c1cccc2ccccc12 | 4.83 |
| C1C[NH2+]CCSCCN1 | 4.16 |
| COc1ncc2ccccc2n1 | 1.31 |

| SMILES | pKa |
| --- | --- |
| NCCC[NH2+]CCO | 8.19 |
| CC1(C)OC(=O)C[C@H]2[C@@H](C(=O)[O-])NC[C@H]21 | 9 |
| Cc1ccc(OC(=O)CCCCN(C)C)cc1 | 9.87 |
| OC[C@@H]1O[C@H](n2ccc3c2ncn2ccnc32)[C@@H](O)[C@H]1O | 5.49 |
| COc1ncnc2ccccc12 | 3.13 |
| Nc1ccc(S(=O)(=O)Nc2ccccn2)cc1 | 2.58 |
| c1ccc(-c2cc(-c3ccccc3)c(NCCN3CCOCC3)nn2)cc1 | 6.81 |
| Cc1ccc(CN)cc1N | 9.77 |
| c1cc2[nH]cnc2cn1 | 6.1 |
| CN1CCCCCC1 | 11 |
| Cc1cc2ncn([C@H]3OC[C@@H](O)[C@@H](O)[C@@H]3O)c2cc1C | 4.58 |
| CC(C)/N=C/N(C)c1ccc(-c2c[nH]cn2)cc1 | 10.4 |
| CCCCCCCCCCCCCCCCCCN(CC(C)O)CC(C)O (stereo not drawn) | 9.4 |
| CCCCCCCCCCCN | 10.6 |
| CCOC(=O)c1cnc2cc3c(cc2c1OCC)OCO3 | 4.09 |
| c1cncc(-c2nc3ccccc3[nH]2)c1 | 4.53 |
| Cc1cnc2ccc(C)c([N+](=O)[O-])c2c1NCCC[NH+](C)C | 6.07 |
| COCCNc1ccc(OC)cc1 | 5.02 |
| CC(N)C/C(N)=N/O (stereo not drawn) | 9.15 |
| CNO | 6.05 |
| CC(=O)CCN(C)C | 8.95 |

| SMILES | pKa |
| --- | --- |
| CCCCCCCCCCCCCCCN | 10.6 |
| C(=C/c1ccncc1)/c1ccccc1 | 5.77 |
| O=C(Cc1ccccc1)C(CN1CCOCC1)c1ccccc1 (stereo not drawn) | 6.17 |
| CNc1ncnc2c1cnn2C | 4.24 |
| C1CCCNCCC1 | 10.8 |
| Cn1cnc2[nH]c(=O)[nH]c(=O)c21 | 0.87 |
| O=C1CCC[C@H]2[C@H]3C[C@@H](CN12)[C@@H]1CCCCN1C3 | 9.4 |
| NC(=O)CCCc1cccnc1 | 5.33 |
| CCn1cc(C#N)c(=O)c2ccccc21 | -1.55 |
| C[NH+](C)CCCN | 6.74 |
| Nc1ccc(S(=O)(=O)Nc2cccc[nH+]2)cc1 | 1 |
| Nc1ccccc1-c1ccccc1 | 3.81 |
| COc1cc(S(N)(=O)=O)cc(C(=O)N[C@@H]2C[C@H]3CC[C@@H](C2)N3Cc2ccccc2)c1OC | 8.87 |
| Cc1ccccc1/C=C/c1ccc(N(C)C)cc1 | 4.59 |
| NCC(=O)[O-] | 9.65 |
| [S-]c1ncc2nc[nH]c2n1 | 7.15 |
| CN(C)/C=N/c1ccccc1[N+](=O)[O-] | 5.65 |
| CN(C)CCC(C#N)(c1ccccc1)c1ccccc1 | 8.31 |
| Cc1ccc2nc3ccc(C)cc3cc2c1 | 4.5 |
| N[C@H](c1ccccc1)[C@H](O)c1ccccc1 | 10.5 |
| Nc1cncc2ccccc12 | 6.28 |
